{"source": "patent US5672603A", "about": "“Apoptosis regulating composition” (Otsuka Pharmaceutical Co., Ltd., priority 1991, dated 1997)", "molecules": {"B1": {"name": "lymphotoxin (LT): lymphotoxin (LT) (protein, UniProt P01374 35-205, looked up)", "Lymphotoxin-alpha": "LPGVGLTPSAAQTARQHPKMHLAHSTLKPAAHLIGDPSKQNSLLWRANTDRAFLQDGFSLSNNSLLVPTSGIYFVYSQVVFSGKAYSPKATSSPLYLAHEVQLFSSQYPFHVPLLSSQKMVYPGLQEPWLHSMYHGAAFQLTQGDQLSTHTDGIPHLVLSPSTVFFGAFAL"}, "B2": {"name": "G-CSF: granulocyte colony stimulating factor (protein, UniProt P09919 31-207, looked up)", "Granulocyte …": "TPLGPASSLPQSFLLKCLEQVRKIQGDGAALQEKLVSECATYKLCHPEELVLLGHSLGIPWAPLSSCPSQALQLAGCLSQLHSGLFLYQGLLQALEGISPELGPTLDTLQLDVADFATTIWQQMEELGMAPALQPTQGAMPAFASAFQRRAGGVLVASHLQSFLEVSYRVLRHLAQP"}}, "key": {"HL-60 cells [1]": {"tested_on": "HL-60 cells", "test": "HL-60 cell growth inhibition, 3 days", "assay_type": "cell-based", "details": "Homo sapiens, HL-60, 72 h, 30 μg/ml, read-out: Cell growth inhibiting effect (%)", "procedure": "(§1) HL-60 cells were cultivated in RPMI-1640 medium supplemented with 10% of FCS at 37° C. under 5% CO2, and the cell concentration was adjusted to 5×10^4 cells/ml.\n(§2) Then, the above-mentioned medium containing 30 μg/ml of each test compound was added to each well of 6-well microplates (Costar), followed by 3 days of incubation at 37° C. under 5% CO2. In a control group, the above medium alone was added and incubation was performed in the same manner. Thereafter, each cultured cell suspension was sampled into an Eppendorf tube and, after staining with 0.2% trypan blue-containing phosphate buffer, viable cells were counted using a hematocytometer."}, "HL-60 cells [2]": {"tested_on": "HL-60 cells", "test": "Induction of differentiation of HL-60 cells (CD11b expression, flow cytometry)", "assay_type": "cell-based, human", "parameters": "reference not given here", "details": "30 μg/ml; 3 days; CD11b fluorescence", "procedure": "as §1, §2\nThe above cells were adjusted to 1×10^7 cells/ml. To 100 μl of the cell suspension was added 5 μl of a solution of fluorescein isothiocyanate (FITC)-labeled anti-human CD11b antibody (Mol; Coulter) and the reaction was allowed to proceed on ice in the dark for 30 minutes. Then, cells were washed twice with PBS (phosphate-buffered saline; Nissui Pharmaceutical) containing 0.1% of BSA (bovine serum albumin; Sigma), finally suspended in 500 μl of the BSA-containing PBS and measured for fluorescence intensity by flow cytometry using Profile II (Coulter)."}, "HL-60 cells [3]": {"tested_on": "HL-60 cells", "details": "literature; cited from earlier work"}, "apoptosis": {"tested_on": "apoptosis", "details": "literature; cited from earlier work"}, "lymphocytic tumor cells": {"tested_on": "lymphocytic tumor cells", "details": "X-ray radiation; literature; cited from earlier work"}, "[4]": {"tested_on": "small intestine crypt cells", "details": "literature; cited from earlier work"}, "acute leukemia cells": {"tested_on": "acute leukemia cells", "details": "literature; cited from earlier work"}, "PC12 cells": {"tested_on": "PC12 cells", "test": "Effect on PC12 cells (morphology, phase contrast microscope)", "details": "NGF alone group, 0.3% FCS", "experimental": "PC12 cells subcultured in Dulbecco's modified Eagle's medium (D-MEM) supplemented with 5% heat-inactivated (56° C., 30 minutes) horse serum and 10% fetal calf serum (FCS) were transferred onto collagen-coatedplastic Petri dishes (35 mm in diameter) at a concentration of 6×10^4 cells/3 ml medium."}, "nerve cells": {"tested_on": "nerve cells", "details": "administration in advance; literature; cited from earlier work"}, "[5]": {"tested_on": "aged rats with learning disorder", "details": "literature; cited from earlier work"}, "sympathetic nerve cells": {"tested_on": "sympathetic nerve cells", "details": "literature; cited from earlier work"}}, "note": "Numbered stars: 1 amine (or outer) side, 2 acyl side, 3 side chain; on linkers, the order of the positions; unused ones are H or OH. Bridge positions count the residues as written; N and C are the ends. Square brackets hold non-standard residues; d marks the D form. Peptide text beside a SMILES is read from it. I, II: the chains in the order shown. Actinocin(9to1) = Cc1c2oc3c(C)ccc(C(=O)[*:1])c3nc-2c(C(=O)[*:2])c(N)c1=O; NMeV = CN[C@H](C(=O)O)C(C)C; Sar = CNCC(=O)O", "data": [{"molecule": "COc1cc(C(=O)N2CCN(c3ccc4c(c3)CCC(=O)N4)CC2)cc(OC)c1OC", "note": "[Compound 2, 6-[4-(3,4,5-Trimethoxybenzoyl)-1-piperazinyl]-3,4-dihydrocarbostyril]", "values": [{"measurement": "inhibition at 30 µg/mL", "setting": "HL-60 cells [1]", "result": 20.2, "unit": "%"}]}, {"molecule": "COc1cc(C(=O)N2CCN(c3ccc4c(c3)NC(=O)CC4)CC2)cc(OC)c1OC", "note": "[Compound 3, 7-[4-(3,4,5-Trimethoxybenzoyl)-1-piperazinyl]-3,4-dihydrocarbostyril]", "values": [{"measurement": "Induction of differentiation promoting effect", "setting": "HL-60 cells [2]", "result": 384}]}, {"molecule": "COc1ccc(C(=O)N2CCN(c3ccc4c(c3)NC(=O)CC4)CC2)cc1OC", "note": "[Compound 4, 7-[4-(3,4-Dimethoxybenzoyl)-1-piperazinyl]-3,4-dihydrocarbostyril]", "values": [{"measurement": "Induction of differentiation promoting effect", "setting": "HL-60 cells [2]", "result": 383}]}, {"molecule": "CCOc1ccc(C(=O)N2CCN(c3ccc4c(c3)CCC(=O)N4)CC2)cc1", "note": "[Compound 5, 6-[4-(4-Ethoxybenzoyl)-1-piperazinyl]-3,4-dihydrocarbostyril]", "values": [{"measurement": "Induction of differentiation promoting effect", "setting": "HL-60 cells [2]", "result": 232}]}, {"molecule": "COc1ccc(C(=O)N2CCN(c3cccc4c3CCC(=O)N4)CC2)cc1OC", "note": "[Compound 6, 5-[4-(3,4-Dimethoxybenzoyl)-1-piperazinyl]-3,4-dihydrocarbostyril]", "values": [{"measurement": "Induction of differentiation promoting effect", "setting": "HL-60 cells [2]", "result": 303}]}, {"molecule": "COc1ccc(C(=O)N2CCN(c3ccc4[nH]c(=O)ccc4c3)CC2)cc1OC", "note": "[Compound 7, 6-[4-(3,4-Dimethoxybenzoyl)-1-piperazinyl]carbostyril]", "values": [{"measurement": "inhibition at 30 µg/mL", "setting": "HL-60 cells [1]", "result": 24.1, "unit": "%"}, {"measurement": "Induction of differentiation promoting effect", "setting": "HL-60 cells [2]", "result": 898}]}, {"molecule": "COc1ccc(C(=O)N2CCN(c3cccc4c3NC(=O)CC4)CC2)cc1OC", "note": "[Compound 8, 8-[4-(3,4-Dimethoxybenzoyl)-1-piperazinyl]-3,4-dihydrocarbostyril]", "values": [{"measurement": "inhibition at 30 µg/mL", "setting": "HL-60 cells [1]", "result": 24.9, "unit": "%"}, {"measurement": "Induction of differentiation promoting effect", "setting": "HL-60 cells [2]", "result": 344}]}, {"molecule": "Cc1c2oc3c(C)ccc(C(=O)N[C@@H]4C(=O)N[C@H](C(C)C)C(=O)N5CCC[C@H]5C(=O)N(C)CC(=O)N(C)[C@@H](C(C)C)C(=O)O[C@@H]4C)c3nc-2c(C(=O)N[C@@H]2C(=O)N[C@H](C(C)C)C(=O)N3CCC[C@H]3C(=O)N(C)CC(=O)N(C)[C@@H](C(C)C)C(=O)O[C@@H]2C)c(N)c1=O", "note": "[actinomycin D] (I: T[dV]P[Sar][NMeV] / II: T[dV]P[Sar][NMeV]; ester I:1-I:C, II:1-II:C; linker I:N-II:N via Actinocin(9to1))", "values": [{"measurement": "Apoptosis induction in HL-60 cells", "setting": "HL-60 cells [3]", "result": "apoptosis induction"}, {"measurement": "Repression of apoptosis", "setting": "apoptosis", "result": "capable of repressing apoptosis"}, {"measurement": "Apoptosis of lymphocytic tumor cells", "setting": "lymphocytic tumor cells", "result": "potentiates"}, {"measurement": "Apoptosis induction in small intestine crypt cells", "setting": "[4]", "result": "apoptosis induction"}]}, {"molecule": "C[C@@H]1C[C@@H]([C@H](O)CC2CC(=O)NC(=O)C2)C(=O)[C@@H](C)C1", "note": "[cycloheximide]", "values": [{"measurement": "Apoptosis induction in acute leukemia cells", "setting": "acute leukemia cells", "result": "apoptosis induction"}, {"measurement": "Apoptosis induction in HL-60 cells", "setting": "HL-60 cells [3]", "result": "apoptosis induction"}, {"measurement": "Repression of apoptosis", "setting": "apoptosis", "result": "capable of repressing apoptosis"}, {"measurement": "Apoptosis of lymphocytic tumor cells", "setting": "lymphocytic tumor cells", "result": "suppresses"}]}, {"molecule": "GM-CSF: granulocyte macrophage colony stimulating factor", "values": [{"measurement": "Repression of apoptosis", "setting": "apoptosis", "result": "repress apoptosis"}]}, {"molecule": "NGF: nerve growth factor (NGF, Wako Pure Chemical)", "values": [{"measurement": "Formation of nerve-like processes, NGF stimulation", "setting": "PC12 cells", "result": "formation of nerve-like processes"}, {"measurement": "Nerve cell death in development stage", "setting": "nerve cells", "result": "complete inhibition of nerve cell death"}, {"measurement": "Recovery from learning disorder", "setting": "[5]", "result": "can recover from learning disorder"}, {"measurement": "Programmed death of sympathetic nerve cells", "setting": "sympathetic nerve cells", "result": "can inhibit programmed death of sympathetic nerve cells"}]}, {"molecule": "bcl-2 gene product: bcl-2 gene product", "values": [{"measurement": "Repression of apoptosis", "setting": "apoptosis", "result": "repress apoptosis"}]}, {"molecule": "B1", "values": [{"measurement": "Induction of apoptosis", "setting": "apoptosis", "result": "induced"}]}, {"molecule": "B2", "values": [{"measurement": "Repression of apoptosis", "setting": "apoptosis", "result": "repress apoptosis"}]}]}
